Where two headings read alike, the source gives them in different places.
How the values were obtained:
Dd2^L350H (PfATP4^L350H) = assay: Drug susceptibility assay for cross-resistance profiling (Fidock Lab), L350H; format: cell-based, Plasmodium falciparum; settings: Table 3 data set; for EC50: Plasmodium falciparum, DD2, 15-selected line
Dd2^P412L (PfATP4^P412L) = assay: Drug susceptibility assay for cross-resistance profiling (Fidock Lab), P412L; format: cell-based, Plasmodium falciparum; settings: Table 3 data set; for EC50: Plasmodium falciparum, DD2, 15-selected line
[1] = tested on: P. falciparum NF54^luc parasites; assay: Luciferase reporter (LR) / BRRoK assay, PfNF54^luc; format: cell-based, Plasmodium falciparum; settings: Plasmodium falciparum, NF54, Hec50; luciferase reporter, 6 h
[2] = tested on: Pf3D7 trophozoite-stage parasites, cytosolic pH (pHcyt); cell-based assay for ATP4 inhibition; assay: P. falciparum cytosolic dose response pH assay (BCECF, with concanamycin A); settings: Plasmodium falciparum, read-out: Pf3D7 pH EC50
PfD10 attB + yDHODH = assay: 72 h SYBR Green growth inhibition, strain expressing yeast DHODH; format: cell-based; settings: Plasmodium falciparum, read-out: PfD10 attB + yDHODH EC50, 72 h SYBR Green assay
PfD10 attB = assay: 72 h SYBR Green growth inhibition, PfD10 attB; format: cell-based; settings: Plasmodium falciparum; 72 h SYBR Green assay
[3] = Human HepG2 cytotoxicity assay (CellTiter Glo); format: cell-based; settings: HepG2 cells
[4] = tested on: PfDd2 parasites, 2- or 3-selected bulk cultures; assay: EC50 of bulk cultures after rounds of resistance selection; format: cell-based; settings: Plasmodium falciparum, read-out: bulk culture EC50
Experimental: To confirm the MOA for the α-azacyclic acetamides against P. falciparum and to obtain potential information about whether or not they bind PfATP4 at an overlapping site with that of KAE609, we undertook resistance selections using PfDd2 parasites using the published cycling drug selection method. , α-Azacyclic acetamides 2 and 3 were chosen as representative examples of the pyrrole- and indole-based series, respectively. […] Additional cycles were performed at 20 × EC50, until resistant parasites were detected based on a fold change in EC50 compared to the parental clonal Dd2 line (Table S3). Resistant parasites were detected in the 2-selections in all 4 flasks after 4 pulses and for 3-selections in 3 flasks after 5 pulses. Clonal lines were generated from each flask, and one clone per flask was selected for WGS and EC50 determination (Tables S4 and S5). WGS analysis identified two single point mutations in PfATP4 that were not present in the original clonal Dd2 parasite line (Tables and S4). P412L was found in three of four flasks containing 2-selected resistance clones, and F917L was identified in all three flasks containing 3-selected clones and in the fourth flask containing 2-selected clones (Table S4). PfATP4 mutations identified by the WGS analysis in parasite lines were verified by PCR of the pfatp4 gene, followed by Sanger sequencing (Figures S5, S6 and Table S6). An additional protein coding gene (ribosomal protein S8e) was mutated in the 2-selections. However, this mutation was identified in only one of four sequenced clones and is therefore unlikely to be related to resistance to 2 (Figure S7). All three resistant clones derived from the 3-selections harbored an identical mutation in a gene (pfcpu) encoding a conserved protein of unknown function, which was absent in the parental line (Figure S8).
Resistant Dd2 parasites were selected using a high-pressure intermittent selection protocol using a previously described method. Selections were set up using 4 flasks per compound starting with approximately 3 × 10^9 parasites per flask (80 mL per flask, 4% hematocrit, 3% parasitemia at the beginning of each pulse, mostly ring-stage parasites via previous sorbitol synchronization. Pulse 1 and 2 (48 h) were conducted at 10xEC50, and subsequent pulses were conducted at 20xEC50. Parasites cleared within 48 h under these conditions. 3-Selections used a total of 4 pulses, while 2-selections required 5 pulses before resistant parasites emerged (Table S3). Culture media was replenished daily for a week after each pulse, then every 2 days with weekly replenishment of blood. Cultures were monitored by microscopy until recrudescence. Clonal parasites were obtained from each flask by limiting dilution and maintained in drug free RPMI-1640 media prior to being analyzed for EC50 shifts. Established clonal lines were aliquoted and stored at −80 °C after suspension in Glycerolyte 57 solution (Baxter Cat no 4A7831).

[5] = tested on: Pf3D7 trophozoites, pHcyt (PfATP4 and other plasma membrane transporters); assay: P. falciparum pH fingerprint assay; settings: 5 μM, compared with KAE609 50 nM
[6] = tested on: P. falciparum 3D7 parasites (Pf3D7); assay: 72 h SYBR Green growth inhibition, ABS P. falciparum 3D7 (Phillips Lab); format: cell-based, Plasmodium falciparum; settings: Plasmodium falciparum, 3D7; 72 h SYBR Green assay; mean ± SEM (n)

Structure (SMILES)	EC50 (Dd2^L350H (PfATP4^L350H)) [nM]	EC50 fold-change vs Dd2-B2, Dd2^L350H (Dd2^L350H (PfATP4^L350H)) [fold]	EC50 (Dd2^P412L (PfATP4^P412L)) [nM]	EC50 fold-change vs Dd2-B2, Dd2^P412L (Dd2^P412L (PfATP4^P412L)) [fold]	EC50 [1] [nM]	EC50 [2] [nM]	EC50 (PfD10 attB + yDHODH) [nM]	EC50 (PfD10 attB) [nM]	CC50 at 96 h [3] [nM]	pH fingerprint, +Glucose + CMA condition (in words) [5]	EC50 [6] [nM]	other results
Cc1ccnc(NC(=O)Cn2cccc2-c2nc(-c3ccccc3)cs2)c1 [compound 2, N-(4-methylpyridin-2-yl)-2-(2-(4-phenylthiazol-2-yl)-1H-pyrrol-1-yl)acetamide]	1600 ± 160	4.2	34000 ± 1300	89	1100 ± 90	1600 ± 950	990	1200	> 50000	maximal/near-maximal inhibition of PfATP4	830 ± 71	EC50 ([4]; 2-selected Flask 1, after Pulse 3 (20×EC50)): 570 nM; EC50 ([4]; 2-selected Flask 1, after Pulse 4 (20×EC50)): 8400 nM; EC50 ([4]; 2-selected Flask 2, after Pulse 3 (20×EC50)): 580 nM; EC50 ([4]; 2-selected Flask 2, after Pulse 4 (20×EC50)): > 10000 nM; EC50 ([4]; 2-selected Flask 3, after Pulse 3 (20×EC50)): 1100 nM; EC50 ([4]; 2-selected Flask 3, after Pulse 4 (20×EC50)): > 10000 nM; EC50 ([4]; 2-selected Flask 4, after Pulse 3 (20×EC50)): 810 nM; EC50 ([4]; 2-selected Flask 4, after Pulse 4 (20×EC50)): 6600 nM
Cc1nn(CCNC(=O)Cn2c(C)c(C#N)c3ccccc32)c(C)c1Cl [compound 3, N-(2-(4-chloro-3,5-dimethyl-1H-pyrazol-1-yl)ethyl)-2-(3-cyano-2-methyl-1H-indol-1-yl)acetamide]	3400 ± 320	6.3	4100 ± 450	7.6	1600 ± 71	1500 ± 47	930	1300	> 50000	submaximal inhibition	1100 ± 71	EC50 ([4]; 3-selected Flask 1, after Pulse 2 (10×EC50)): 720 nM; EC50 ([4]; 3-selected Flask 1, after Pulse 3 (20×EC50)): 1200 nM; EC50 ([4]; 3-selected Flask 2, after Pulse 2 (10×EC50)): 840 nM; EC50 ([4]; 3-selected Flask 2, after Pulse 3 (20×EC50)): > 10000 nM; EC50 ([4]; 3-selected Flask 3, after Pulse 2 (10×EC50)): 1000 nM; EC50 ([4]; 3-selected Flask 3, after Pulse 3 (20×EC50)): > 10000 nM; EC50 ([4]; 3-selected Flask 4, after Pulse 2 (10×EC50)): 1100 nM; EC50 ([4]; 3-selected Flask 4, after Pulse 3 (20×EC50)): > 10000 nM
